Measurements as given in ChEMBL document CHEMBL1144945, “Development of progesterone receptor antagonists from 1,2-dihydrochromeno[3,4-f]quinoline agonist pharmacophore” (Bioorg Med Chem Lett, 2003).
The source made the active and inactive calls.

Assays:
[1] = molecular target: T1, Progesterone receptor (Homo sapiens, UniProt P06401)
T1 sequence (P06401 whole entry): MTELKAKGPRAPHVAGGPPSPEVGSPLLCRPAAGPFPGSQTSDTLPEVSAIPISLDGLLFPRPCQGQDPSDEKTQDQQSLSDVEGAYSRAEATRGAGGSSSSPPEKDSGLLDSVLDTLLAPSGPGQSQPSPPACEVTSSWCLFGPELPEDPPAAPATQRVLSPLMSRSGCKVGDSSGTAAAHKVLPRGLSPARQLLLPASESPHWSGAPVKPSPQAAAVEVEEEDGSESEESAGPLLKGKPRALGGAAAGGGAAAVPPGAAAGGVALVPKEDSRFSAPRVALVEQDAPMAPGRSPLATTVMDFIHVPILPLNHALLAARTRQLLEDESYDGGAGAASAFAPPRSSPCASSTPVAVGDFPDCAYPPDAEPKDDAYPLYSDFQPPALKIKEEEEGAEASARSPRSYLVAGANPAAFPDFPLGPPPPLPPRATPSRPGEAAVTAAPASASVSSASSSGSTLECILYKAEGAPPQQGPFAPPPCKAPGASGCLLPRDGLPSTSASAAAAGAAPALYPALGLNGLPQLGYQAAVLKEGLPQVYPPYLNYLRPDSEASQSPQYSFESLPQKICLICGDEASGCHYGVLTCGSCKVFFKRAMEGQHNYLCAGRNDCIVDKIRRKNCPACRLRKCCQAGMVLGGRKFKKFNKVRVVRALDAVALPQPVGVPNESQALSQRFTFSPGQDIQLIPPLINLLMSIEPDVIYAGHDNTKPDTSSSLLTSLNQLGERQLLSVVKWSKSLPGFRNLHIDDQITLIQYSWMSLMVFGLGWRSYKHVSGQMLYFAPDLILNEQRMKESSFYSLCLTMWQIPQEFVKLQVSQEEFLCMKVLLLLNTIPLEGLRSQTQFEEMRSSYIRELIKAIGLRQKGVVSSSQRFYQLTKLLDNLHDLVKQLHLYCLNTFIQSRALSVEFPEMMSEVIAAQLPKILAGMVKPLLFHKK

[2] = molecular target: T1, Progesterone receptor; remark: listed apart in the source
Description: Binding affinity at human progesterone receptor.

[3] = molecular target: T1, Progesterone receptor; remark: listed apart in the source
Description: Inhibition of human progesterone receptor activation in T47D human breast cancer cell.

[4] = molecular target: T1, Progesterone receptor; remark: listed apart in the source
Description: Antagonistic activity at human progesterone receptor in CV-1 cells.

[5] = molecular target: T2, Progesterone receptor (Homo sapiens) (UniProt P06401); assay: Agonist efficacy for human progesterone receptor in T47D human breast cancer cell; not active (<20% efficacy and/or >10 mM potency); assay type: functional, cell-based
T2 sequence (whole entry): T1 sequence (P06401 whole entry)

[6] = molecular target: T1, Progesterone receptor; assay: Effective concentration for human progesterone receptor in T47D human breast cancer cell; not active (<20% efficacy and/or >10 mM potency); details: cancer cell lines

| EC50 [1] | Ki [2] | IC50 [3] | EC50 [4] | Efficacy [5] | EC50 [6] | Compound |
| --- | --- | --- | --- | --- | --- | --- |
| > 1000 nM | 248 nM | 368 nM | 118 nM | – | – | CC1=CC(C)(C)Nc2ccc3c(c21)COc1c(F)cccc1-3 |
| – | 476 nM | – | 43 nM | – | – | COc1cc(Br)cc2c1OCc1c-2ccc2c1C(C)=CC(C)(C)N2 |
| – | > 1000 nM | 811 nM | 2030 nM | inactive | Not Active | CC1=CC(C)(C)Nc2ccc3c(c21)COc1ccc(-c2ccccc2)cc1-3 |
| > 1000 nM | 86 nM | 187 nM | 170 nM | – | – | COc1ccc2c(c1)-c1ccc3c(c1CO2)C(C)=CC(C)(C)N3 |
| – | 205 nM | 374 nM | 178 nM | – | – | CC1=CC(C)(C)Nc2ccc3c(c21)COc1c(C)cc(Cl)cc1-3 |
